# Calls of active or inactive are those of the source.
# Key:
# [1] = HeLa cell viability loss – plate reader, dry powder, cytotoxicity control, dose response (AID 651946); assay type: functional, cell-based
# [2] = inhibition of ADAM10 peptide cleavage – biochemical, FRET peptide substrate, recombinant human ADAM10, selectivity assay for ADAM17 exosite inhibitor project, dose response (AID 743259);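 also: ADAM10 enzyme cleaving a FRET peptide substrate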
# [3] = biological target: Disintegrin and metalloproteinase domain-containing protein 17 (Homo sapiens, UniProt P78536); assay: exosite inhibitors of ADAM17, dose response, biochemical (AID 743260)
# Sequence of Disintegrin and metalloproteinase domain-containing protein 17 (P78536 whole entry, the tested form may be a part): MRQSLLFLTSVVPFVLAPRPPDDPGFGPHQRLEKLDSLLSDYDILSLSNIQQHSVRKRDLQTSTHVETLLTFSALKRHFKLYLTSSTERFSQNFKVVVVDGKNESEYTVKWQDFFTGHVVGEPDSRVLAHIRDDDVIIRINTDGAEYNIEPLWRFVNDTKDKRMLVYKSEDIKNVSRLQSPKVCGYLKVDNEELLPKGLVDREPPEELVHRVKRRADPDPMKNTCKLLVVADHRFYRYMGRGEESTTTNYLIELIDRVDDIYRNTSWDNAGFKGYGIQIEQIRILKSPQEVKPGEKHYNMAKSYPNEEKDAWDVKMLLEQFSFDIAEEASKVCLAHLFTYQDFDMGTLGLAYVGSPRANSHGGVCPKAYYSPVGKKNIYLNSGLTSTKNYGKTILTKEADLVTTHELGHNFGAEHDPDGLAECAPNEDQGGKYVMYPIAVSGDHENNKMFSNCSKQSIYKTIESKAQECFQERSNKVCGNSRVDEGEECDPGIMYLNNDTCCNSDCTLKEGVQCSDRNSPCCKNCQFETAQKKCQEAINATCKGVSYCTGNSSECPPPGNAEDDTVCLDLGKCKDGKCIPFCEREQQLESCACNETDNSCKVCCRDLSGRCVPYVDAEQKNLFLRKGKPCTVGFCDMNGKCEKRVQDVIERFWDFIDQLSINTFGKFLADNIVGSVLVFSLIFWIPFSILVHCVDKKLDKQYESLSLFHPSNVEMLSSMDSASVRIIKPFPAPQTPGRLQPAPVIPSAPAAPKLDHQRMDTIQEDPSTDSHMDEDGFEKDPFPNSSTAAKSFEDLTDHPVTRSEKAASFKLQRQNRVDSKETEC
# [4] = non-specific 3'UTR reporter inhibition in Clone20-Shn3RL – cell-based, Renilla luciferase, cherry-picked, counter-screen for Shn3 inhibitor project, dose response (AID 624133); assay type: functional
# [5] = Shn3 3'UTR reporter signal decrease – cell-based, Clone20 osteoblasts, firefly luciferase, cherry-pick, set 2, Schnurri-3 inhibitor project, dose response (AID 720490); assay type: functional;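 also: actives lower the luminescence signal as inhibitors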
# [6] = reduction of Shn3 3'UTR-driven luciferase in osteoblasts – cell-based, Clone20 osteoblasts, firefly luciferase, cherry-picked, dose response (AID 624132); assay type: functional;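 also: firefly luciferase luminescence from reporter carrying the Shn3 3'UTR in osteoblasts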
# [7] = biological target: 1-phosphatidylinositol 4,5-bisphosphate phosphodiesterase gamma-1 (Homo sapiens, UniProt P19174); assay: Counterscreen for inhibitors of phospholipase C isozymes (PLC-B3): Fluorescence-based biochemical high throughput dose response assay to identify inhibitors of phospholipase C isozymes (PLC-gamma1).
# Sequence of 1-phosphatidylinositol 4,5-bisphosphate phosphodiesterase gamma-1 (P19174 whole entry): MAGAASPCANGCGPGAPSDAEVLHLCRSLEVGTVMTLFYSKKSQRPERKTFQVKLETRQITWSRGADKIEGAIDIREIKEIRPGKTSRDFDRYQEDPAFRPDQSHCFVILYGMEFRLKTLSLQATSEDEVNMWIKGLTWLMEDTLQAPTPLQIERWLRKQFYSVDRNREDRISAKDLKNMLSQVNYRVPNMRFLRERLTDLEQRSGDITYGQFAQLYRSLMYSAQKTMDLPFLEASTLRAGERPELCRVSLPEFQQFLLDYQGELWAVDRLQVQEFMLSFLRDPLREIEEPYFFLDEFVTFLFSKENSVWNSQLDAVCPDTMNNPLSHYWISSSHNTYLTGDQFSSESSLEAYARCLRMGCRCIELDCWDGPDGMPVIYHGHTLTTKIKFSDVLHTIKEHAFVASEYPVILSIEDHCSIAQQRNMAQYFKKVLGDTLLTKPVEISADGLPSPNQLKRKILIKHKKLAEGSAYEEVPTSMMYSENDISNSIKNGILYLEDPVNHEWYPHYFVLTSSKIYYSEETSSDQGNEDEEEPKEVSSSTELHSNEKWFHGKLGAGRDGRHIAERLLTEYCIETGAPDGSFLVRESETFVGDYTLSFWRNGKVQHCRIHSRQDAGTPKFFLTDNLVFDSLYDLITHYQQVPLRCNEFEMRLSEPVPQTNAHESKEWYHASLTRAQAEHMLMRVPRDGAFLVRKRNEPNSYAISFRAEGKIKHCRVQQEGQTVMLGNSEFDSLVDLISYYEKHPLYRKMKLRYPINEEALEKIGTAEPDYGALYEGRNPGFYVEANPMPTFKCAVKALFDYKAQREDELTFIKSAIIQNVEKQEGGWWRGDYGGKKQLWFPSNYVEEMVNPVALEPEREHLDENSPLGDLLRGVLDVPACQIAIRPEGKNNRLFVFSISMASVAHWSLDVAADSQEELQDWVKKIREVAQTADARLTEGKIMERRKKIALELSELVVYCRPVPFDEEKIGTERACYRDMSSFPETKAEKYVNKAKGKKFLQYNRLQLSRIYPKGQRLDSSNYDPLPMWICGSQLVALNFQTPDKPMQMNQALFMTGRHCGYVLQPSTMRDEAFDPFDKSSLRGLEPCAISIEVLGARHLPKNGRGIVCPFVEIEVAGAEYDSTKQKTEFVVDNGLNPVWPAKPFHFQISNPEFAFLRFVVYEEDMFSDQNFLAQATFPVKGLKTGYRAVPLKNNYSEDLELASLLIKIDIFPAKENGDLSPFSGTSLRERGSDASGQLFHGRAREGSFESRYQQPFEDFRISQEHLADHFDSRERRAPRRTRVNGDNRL
# [8] = biological target: 1-phosphatidylinositol 4,5-bisphosphate phosphodiesterase beta-3 (Homo sapiens, UniProt Q01970); assay: Fluorescence-based biochemical high throughput dose response assay to identify inhibitors of phospholipase C isozymes (PLC-B3).
# Sequence of 1-phosphatidylinositol 4,5-bisphosphate phosphodiesterase beta-3 (Q01970 whole entry): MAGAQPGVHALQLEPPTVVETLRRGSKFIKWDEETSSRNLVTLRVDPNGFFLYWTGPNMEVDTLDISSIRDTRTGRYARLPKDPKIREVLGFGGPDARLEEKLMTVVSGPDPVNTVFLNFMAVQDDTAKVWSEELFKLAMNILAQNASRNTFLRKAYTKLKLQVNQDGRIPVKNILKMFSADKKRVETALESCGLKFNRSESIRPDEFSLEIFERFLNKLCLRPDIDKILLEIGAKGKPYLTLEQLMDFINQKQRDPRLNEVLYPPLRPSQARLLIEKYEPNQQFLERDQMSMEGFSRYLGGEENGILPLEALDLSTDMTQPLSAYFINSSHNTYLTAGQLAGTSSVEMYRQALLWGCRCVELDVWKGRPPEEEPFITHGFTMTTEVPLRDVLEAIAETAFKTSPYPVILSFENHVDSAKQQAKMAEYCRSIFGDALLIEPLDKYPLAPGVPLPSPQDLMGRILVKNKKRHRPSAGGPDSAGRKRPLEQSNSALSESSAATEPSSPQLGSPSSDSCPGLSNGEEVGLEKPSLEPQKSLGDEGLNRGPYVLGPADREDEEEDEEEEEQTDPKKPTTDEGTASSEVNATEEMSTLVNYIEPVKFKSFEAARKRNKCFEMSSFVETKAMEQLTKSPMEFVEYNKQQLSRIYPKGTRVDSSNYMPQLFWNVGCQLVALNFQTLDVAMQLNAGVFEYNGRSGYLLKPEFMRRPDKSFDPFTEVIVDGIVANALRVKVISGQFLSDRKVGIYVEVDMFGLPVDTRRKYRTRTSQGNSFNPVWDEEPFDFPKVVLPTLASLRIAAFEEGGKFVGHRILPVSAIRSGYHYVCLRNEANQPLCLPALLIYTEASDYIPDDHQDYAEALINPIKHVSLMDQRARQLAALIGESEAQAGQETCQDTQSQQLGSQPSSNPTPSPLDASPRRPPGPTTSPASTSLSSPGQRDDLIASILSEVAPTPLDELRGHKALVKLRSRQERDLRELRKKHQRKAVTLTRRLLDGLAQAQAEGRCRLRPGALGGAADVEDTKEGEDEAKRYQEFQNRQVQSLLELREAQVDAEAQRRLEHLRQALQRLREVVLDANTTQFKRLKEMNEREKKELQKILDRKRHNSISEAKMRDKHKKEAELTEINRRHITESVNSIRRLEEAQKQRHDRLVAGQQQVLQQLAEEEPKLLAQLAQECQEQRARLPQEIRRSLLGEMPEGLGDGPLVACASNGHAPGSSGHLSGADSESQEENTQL
# [9] = A Cell-Based Confirmatory Screen for Compounds that Inhibit VEEV, TC-83 (6).; assay type: functional
# [10] = A Cell-Based Confirmatory Screen for Compounds that Inhibit VEEV, TC-83 (8).; assay type: functional
smiles,measurement,setting,value
c1ccc(-c2nnc(SC(c3ccccc3)c3ccccc3)o2)cc1,AC50,[1],> 52 µM (inactive)
COc1ccccc1CNS(=O)(=O)c1cc(-c2cc(C)no2)ccc1C(C)C,IC50,[2],> 69.5 µM (inactive)
same,IC50,[3],> 69.5 µM (inactive)
Cc1onc(-c2ccccc2Cl)c1C(=O)N(C)C1CCCCC1,AC50,[4],11.2 µM (active)
same,AC50,[5],3.59 µM (active)
same,AC50,[6],2.74 µM (active)
CCCCN1C=C(C(=O)OC)C(c2ccccc2Cl)C(C(=O)OC)=C1,AC50,cells,2.12 µM (active)
O=C(N/N=C/c1ccc(OC(=O)c2ccccc2)cc1)c1cccc(O)c1,IC50,[7],> 122 µM (inactive)
same,IC50,[8],> 122 µM (inactive)
COc1cccc(-n2c(CN3CCNCC3)nc3ccc([N+](=O)[O-])cc3c2=O)c1,IC50,[9],10.4 µM (active)
same,IC50,[10],10.4 µM (active)
